Test in all cases: ITC
Background: ITC needs no label: the signal is the heat of the interaction.

The test system of test [1] is Aca domain I split construct (dom I; 28-mer + 22-mer) (RNA, riboswitch) GGGCGCAACAUCCCCGCCGGUUGGGCGC/GCGCAGUGAACCGGCUGCGUCC
The note with it: 100 mM NaCl, 20 mM MgCl2, 0.10 M Na-HEPES pH 7.0, 10 °C, 1:1 model, apparent.

Test [2] deals with Aai full-length NAD+-I (nadA) riboswitch, 100-mer (RNA, riboswitch) GGCUGCAACAUCCCCGUGGGUUGGACGGCGAAAGCCGUAGCGAAUCCACUGCAGCCUGUAUGGCUUUCAACAUCCCCGUCCGCGAAAGCGGACUGAAGGC
For test [3], the system named is Aca domain II split construct (dom II; 28-mer + 20-mer) (RNA, riboswitch) GCUUUCAACAUCCCCGUCCCGGGCGGAG/CUCCGCAGUGGACUGAAGGC
The conditions noted are these: 100 mM NaCl, 20 mM MgCl2; 0.10 M Na-HEPES pH 7.0, 10 °C; ligand in syringe 0.40–0.63 mM.

Where [4] appears, read: 100 mM NaCl, 20 mM MgCl2, 0.10 M Na-HEPES pH 7.0, 10 °C, 1:1 model, apparent.

`NC(=O)C1=CN([C@@H]2O[C@H](COP(=O)(O)OP(=O)(O)OC[C@H]3O[C@@H](n4cnc5c(N)ncnc54)[C@H](O)[C@@H]3O)[C@@H](O)[C@H]2O)C=CC1`: the figures for the KD in test [1] and in test [2] (setting [4]) were 55.5 ± 3.6 µM and 59.7 ± 2.2 µM, respectively. In addition, in test [3], the binding entry is reported as “no”.

`NC(=O)c1ccc[n+]([C@@H]2O[C@H](COP(=O)(O)OP(=O)(O)OC[C@H]3O[C@@H](n4cnc5c(N)ncnc54)[C@H](O)[C@@H]3O)[C@@H](O)[C@H]2O)c1`: the KD came to 24.6 ± 8.4 µM in test [1]; 31.5 ± 1.5 µM in test [2] (setting [4]); 18.2 ± 2.1 µM in test [2] (K+ (KCl replacing NaCl), KCl-containing ITC buffer, 10 °C, no significant change from Na+). Also, the binding result in test [3] is on record as “no”.

As for `NC(=O)c1ncn([C@@H]2O[C@H](COP(=O)(O)OP(=O)(O)OC[C@H]3O[C@@H](n4cnc5c(N)ncnc54)[C@H](O)[C@@H]3O)[C@@H](O)[C@H]2O)n1`, the KD is 21.9 ± 8.4 µM in test [1] (error printed ± 7.1) and 30.2 ± 1.2 µM in test [2] (setting [4]).

As to `Nc1ncnc2c1ncn2[C@@H]1O[C@H](COP(=O)(O)OP(=O)(O)O)[C@@H](O)[C@H]1O`, the KD in test [1] is 11.1 ± 0.6 µM; in test [2] (setting [4]), 9.7 ± 1.1 µM.

As for `Nc1ncnc2c1ncn2[C@@H]1O[C@H](COP(=O)(O)OP(=O)(O)OP(=O)(O)O)[C@@H](O)[C@H]1O`, in test [2] (setting [4]), the KD amounted to 11.0 ± 3.5 µM.

Values taken from article PMC10702441 (2023).
